The target of one experiment is Aβ42 (Homo sapiens, UniProt P05067). Put plainly: Aβ42 aggregation in vitro (native gel electrophoresis). The class given is biochemical. Particulars: 1 μM, 37° C. As for the experimental part: FIG. 2. Aβ modulating agents can inhibit Aβ aggregation, and agents that bind Aβ amyloid can modulate Aβ42 production. […] (C) Aβ42 modulating agents inhibit naturally secreted oligomer formation. 7PA2 cells were treated with fenofibrate, FT-1, or FT-9 at 50 μM and oligomers assessed by IP Western blotting. […] (D) FT-9, an Aβ42 reducing agent, can inhibit Aβ42 aggregation in vitro.

Experiment [1] has as its system 7PA2 cells (CHO cells stably expressing human APP751 V717F). The experiment in a line: 7PA2 cells: Aβ oligomers (IP/western) and Aβ ELISA. The format is cell-based, Chinese hamster. As for the experimental part:
FIG. 17. γ-secretase modulators decrease the production of cell derived Aβ oligomers. CHO cells stably expressing human APP751 containing the familial Alzheimer's disease mutation V717F (referred to as 7PA2 cells) were incubated for ˜16 hours in the presence of GSMs. […] Aβ40 levels were decreased to varying degrees (26-35%; Li-Cor Odyssey). (B) and (C) Because the extended incubation times necessary to reliably detect Aβ oligomers in this assay can be toxic, we carried out additional dose response studies with fenofibrate and FT-9 to verify that decreases in Aβ oligomers levels were not related to toxicity or global inhibition of Aβ production. […] (C) Increasing doses of FT-9 reduced the detection of Aβ oligomeric bands and Aβ42 decreased preferentially with decreases in Aβ40 at higher doses. […] Aβ species present in conditioned medium were detected by IP using the polyclonal anti-Aβ antibody, DW6 and subsequent immunoblotting with either 6E10 or the 42-specific, anti-Aβ antibody 21F12. Aβ levels in the samples analyzed via IP/western were also quantified via sandwich ELISA. Data presented as percent vehicle control±s.e.m., n=2.
To address the question of whether GSMs influence the concentration of secreted amyloid-β oligomers, such as those released by Chinese hamster ovary (CHO) cells expressing the APP V717F mutation (referred to as 7PA2 cells), which alter long-term potentiation and perturb the memory of learned behavior when injected into rat brain, 7PA2 cells were treated with two Aβ42-raising GSMs and a novel Aβ42-lowering GSM (FIG. 17) (Walsh et al., Nature 416:535:539 (2002); Calabrese et al., Mol. Cell. Neurosci. 35:183-193 (2007)). Fenofibrate and FT-1 increased amounts of Aβ42 whereas FT-9 lowered Aβ42, but all three GSMs decreased amounts of amyloid-β dimers and trimers. […] In contrast to increased amyloid-β oligomer formation, when CHO cells are genetically manipulated to increase Aβ42 production by co-expression of APP and FAD-linked mutant PSEN1 proteins, both Aβ42-lowering and -raising GSMs decreased oligomer formation (Xia et al., J. Biol. Chem. 272: 7977-7982 (1997)).

Where [2] appears, read: FT-9 and FT-1 20 μM, fenofibrate 100 μM, ~16 hours.

Consider 1 compound from patent publication US20110021471A1, “REDUCING Abeta42 LEVELS AND Abeta AGGREGATION” (priority 2007, published 2011).

Chain of Aβ42 (P05067 672-713 limits assumed): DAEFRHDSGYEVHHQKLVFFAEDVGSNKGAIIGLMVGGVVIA

As for `CC(C(=O)O)c1cccc(Oc2cc(Cl)cc(Cl)c2)c1` (centres unmarked) [FT-9, 2-(3-(3,5-dichlorophenoxy)phenyl)propanoic acid], the “Aβ42 aggregation in vitro” value at Aβ42 was “inhibits Aβ42 aggregation”. In experiment [1], the “total Aβ (ELISA) in dose response studies” value is “did not decrease”. In addition, the “naturally secreted oligomer formation” value in experiment [1] (50 μM, IP Western blotting) is “inhibit oligomer formation”. In experiment [1] (setting [2]), the “Aβ42 production in 7PA2 cells” value was “lowers Aβ42”; the “dimeric and trimeric Aβ species” value is “reduce production of dimeric and trimeric Aβ species”.
